Data: patent US8101572B2, “Methods for promoting wound healing and/or reducing scar formation” (Arizona Board of Regents, A Corporate Body Organized Under …, priority 2003, dated 2012)
Non-standard residues stand in square brackets, D forms with d. No end group written: not given here. pS = N[C@@H](COP(=O)(O)O)C(=O)O

Tests used:
[1] = tested on: motor cortex of Sprague Dawley rats; assay: microwire neural electrode implant, histology for glial scarring (GFAP) and axons (MAP2); format: in vivo; details: rat motor cortex, four weeks after implant; peptide as subdural injection (0.1 cc, 100 μm p20) with dextran coated electrodes
Excerpt: Microwire arrays were implanted in the motor cortex of Sprague Dawley rats. Six male Sprague-Dawley rats (300-450 g) were implanted with 2×4 arrays of 50 μm tungsten wire. The electrodes were spaced 500 um apart for a total array size of approximately 1.5 mm×0.5 mm. The implant was centered +3 mm anterior and +2 mm lateral from bregmna. The craniotomy was opened slightly larger than the implant size and an injection (0.1 cc, 0.9% PBS or 100 μm p20) was made into the arachnoid space near the implant site using a 30 gauge needle. The mirowire array was held in a micromanipulator and lowered 2 mm from the surface of the dura. The craniotomy was covered with Gelfoam® and the implant and connector were cemented in place with dental acrylic. Three groups were implanted and evaluated histologically after four weeks. Group one was implanted with untreated electrodes. […] Texas Red labeled anti-Rabbit and Cy5 labeled antij-donkey secondary antibodies were used respectively for visualization.

[2] = tested on: 3T3 cells; assay: DNase 1 inhibition assay for monomer g-actin; format: cell-based; details: forskolin 10 μM, 30 min, pHSP20 25 μM
Protocol: 3T3 cells were cultured and treated as indicated on the graph (4). Monomer g-actin was biochemically quantitated using a DNase 1 inhibition assay. The level of g-actin in the cell extract that caused 50% inhibition of DNase 1 was estimated from a standard actin curve that was determined using known amounts of actin. *P<0.05 compared to untreated cells.
To confirm that the loss of stress fibers is associated with loss of filamentous (f-) actin and commensurate increases in globular (g-) actin, a DNase 1 inhibition assay was performed (5). 3T3 cells were cultured and treated as indicated (4). Monomer g-actin was biochemically quantitated using a DNase 1 inhibition assay. The level of g-actin in the cell extract that caused 50% inhibition of DNase 1 was estimated from a standard actin curve that was determined using known amounts of actin. […] Thus, transduction of pHSP20 led to similar changes in actin filament dynamics and cellular morphology, as did activation of the upstream adenylate cyclase activator forskolin.

[3] = tested on: Swiss albino 3T3 cells; assay: focal adhesion protein localization (immunostaining for α-actinin, vinculin, paxillin); format: cell-based; details: 30 min, 10 μM forskolin, 25 μM pHSP20, 25 μM FITC-aHSP20
Protocol: (§1) Unless otherwise stated, all reagents were purchased from Sigma, St. Louis, Mo. Swiss Albino 3T3 fibroblasts (ATCC, Manassas, Va.) were cultured in DMEM supplemented with 10% BCS, 4 mM L-glutamine and 50 μg/ml penicillin-streptomycin and maintained at 37° C., 5% CO2. Cells were seeded and cultured overnight. Culture media was replaced with DMEM containing 0.5% BCS 1 hour prior to experimentation. Cells were incubated with the peptide analogues or reagent (LPA or forskolin) diluted in DMEM containing 0.5% BCS, 30 minutes at 37° C. Cells were then fixed in 4% paraformnaldehyde, permeabilized in 0.25% Triton X-100, and blocked with 1% BSA solution for 1 hour. To determine f-actin cytoskeletal distribution, treated cells were incubated with Alexa 568 phalloidin (Molecular Probes, Eugene, Oreg.) in 1% BSA, 30 minutes. To determine focal adhesion protein localization, treated cells were incubated with primary monoclonal antibodies for α-actinin (1:100, Upstate, Charlottesville, Va.), vinculin (1:100, Sigma) or paxillin (1:100, BD Bioscience-Transduction Labs, San Jose, Calif.) in 1% BSA solution for 2 hours, rinsed in PBS and incubated 60 min with Cy3-goat IgG secondary antibody (Jackson ImmunoResearch, West Grove, Pa.). Slides were mounted and analyzed by confocal microscopy (Leica TCS SP2, Bannockburn, Ill.). […]

[4] = tested on: 3T3 cells; assay: focal adhesion assay using interference reflection microscopy; format: cell-based; details: cultured 3T3 cells; 100 nM Hep I, 10 μM and 25 μM peptide; FIG. 2
Protocol: Results from the focal adhesion assay using interference reflective microscopy on 3T3 cells treated as described (4). Each condition was tested in triplicate, and an average of 250 cells per coverslip was counted. A cell was scored positive if it contained at least five focal adhesions. Hep I (peptide from thrombospondin 1) was used as a positive control. *P<0.05 compared to untreated cells.
as §1, with “To determine focal adhesion protein localization, treated cells were incubated with primary monoclonal antibodies for α-actinin (1:100, Upstate, Charlottesville, Va.), vinculin (1:100, Sigma) or paxillin (1:100, BD Bioscience-Transduction Labs, San Jose, Calif.) in 1% BSA solution for 2 hours, rinsed in PBS and incubated 60 min with Cy3-goat IgG secondary antibody (Jackson ImmunoResearch, West Grove, Pa.).” left out

[5] = tested on: Swiss albino 3T3 cells; assay: f-actin cytoskeletal distribution (Alexa 568 phalloidin, confocal microscopy); format: cell-based; details: 30 min, 10 μM LPA, 10 μM forskolin, 25 μM FITC-pHSP20, 25 μM FITC-aHSP20
Protocol: as §1, with “To determine focal adhesion protein localization, treated cells were incubated with primary monoclonal antibodies for α-actinin (1:100, Upstate, Charlottesville, Va.), vinculin (1:100, Sigma) or paxillin (1:100, BD Bioscience-Transduction Labs, San Jose, Calif.) in 1% BSA solution for 2 hours, rinsed in PBS and incubated 60 min with Cy3-goat IgG secondary antibody (Jackson ImmunoResearch, West Grove, Pa.).” left out
Swiss albino 3T3 cells were either untreated or treated with 10 μM LPA, 10 μM forskolin, 25 μM FITC-pHSP20, or 25 μM FITC-aHSP20 as described (4). Cells were fixed, stained for f-actin using Alexa 568 phalloidin, and visualized by projection images of confocal fluorescence microscopy. […]

Question: With “YGRKKRRQRRRWLRRApSAPLPGL (YGRKKRRQRRRWLRRA[pS]APLPGL) [pHSP20, phosphopeptide analogue of HSP20 with HIV Tat protein transduction domain]” as the substance, how does the “density of axons in the vicinity of the microwire electrodes” value [1] read?
Answer: a higher density of axons was seen

Question: What about the “glial scarring around electrodes” value [1] of the same substance?
Answer: essentially no scarring was observed

Question: And the “g-actin (monomer) in cell extract” value ([2]; FIG. 1)?
Answer: led to increases in g-actin

Question: What about the “g-actin (monomer) in cell extract” value ([2]; FIG. 1, listed as PhosphoHSP20 peptide) of the same substance?
Answer: disrupts the actin cytoskeleton

Question: And the “focal adhesion accumulations of α-actinin, vinculin, and paxillin” value [3]?
Answer: displayed a decrease in focal adhesion accumulations of α-actinin, vinculin, and paxillin

Question: And the “focal adhesions (cells positive for focal adhesions)” value [4]?
Answer: led to disruption of focal adhesions

Question: What about the “cell morphology and stress fibers (f-actin)” value [5] of the same substance?
Answer: displayed stellate morphology and disrupted stress fibers

Question: How did the “cell morphology and stress fibers (f-actin)” value [5] turn out when “lysophosphatidic acid [reference compound]” was run?
Answer: displayed robust stress fibers
